Test results reported in paper PMC6471485, “Selective Inhibitors of a Human Prolyl Hydroxylase (OGFOD1) Involved in Ribosomal Decoding” (Chemistry (Weinheim an Der Bergstrasse, Germany), 2019).

Biological target: T1, OGFOD1 (Homo sapiens, UniProt Q8N543)
T1 sequence (Q8N543 1-542): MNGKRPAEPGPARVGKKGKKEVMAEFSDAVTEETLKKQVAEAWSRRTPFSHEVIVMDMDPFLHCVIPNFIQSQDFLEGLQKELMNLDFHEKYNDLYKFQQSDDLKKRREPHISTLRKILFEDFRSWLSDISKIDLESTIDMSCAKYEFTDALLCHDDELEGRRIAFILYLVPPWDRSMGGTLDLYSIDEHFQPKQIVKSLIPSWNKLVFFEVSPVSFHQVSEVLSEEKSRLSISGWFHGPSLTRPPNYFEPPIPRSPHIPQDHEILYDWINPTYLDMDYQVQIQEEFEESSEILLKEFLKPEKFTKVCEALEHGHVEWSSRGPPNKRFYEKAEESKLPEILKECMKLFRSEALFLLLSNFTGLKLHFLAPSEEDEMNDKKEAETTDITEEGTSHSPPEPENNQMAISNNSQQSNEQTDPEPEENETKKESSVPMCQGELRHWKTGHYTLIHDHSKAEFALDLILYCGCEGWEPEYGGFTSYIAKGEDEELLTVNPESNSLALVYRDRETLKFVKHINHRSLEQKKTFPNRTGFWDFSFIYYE
Assay: OGFOD1 inhibition assay: hydroxylation of RPS23 51-70 peptide by MALDI-TOF MS
Type: biochemical
Details: IC50 against OGFOD1, 1 μM OGFOD1; minimum measurable IC50 0.5 μM; values for 24 and 25 regarded as preliminary
Method: (§1) OGFOD1 inhibition assays were performed by determining the extent of hydroxylation of a 20mer fragment of human ribosomal protein S23 (RPS23) containing residues 51-70 (H2N- […]
(§2) -CONH2) by matrix-assisted laser desorption/ionization time-of-flight mass spectrometry (MALDI-TOF MS) using a Waters Micromass MALDI micro MX mass spectrometer and MassLynx 4.1, as previously described.[7,8] The optimized hydroxylation assay involved incubation of OGFOD1 (1 µM) with inhibitor (1 % v/v in DMSO) in the presence of (NH4)2Fe(SO4)2 (50 µM), the disodium salt of 2-oxoglutarate (25 µM), […]
OGFOD1 was pre-incubated with inhibitor for 5 min before initiation of the reaction via the addition of the other reagents. Reactions were quenched with formic acid (1 % v/v) after 15 min. Samples were prepared for MALDI using α-cyano-4-hydrocinnamic acid (CHCA; prepared in 50 % acetonitrile) as a matrix. Dose-responses were assessed in 8-point triplicates, normalized to a no enzyme negative control and a no inhibitor positive control. Non-linear regression analysis was performed using Prism (GraphPad). […]

Molecule	IC50
Cn1c(O)c(C(=O)Cc2ccccc2)c(=O)n(C)c1=O [compound 25]	2 µM
Cn1c(O)c(C(=O)c2ccccc2)c(=O)n(C)c1=O [compound 24]	30 µM

Same assay, conditions: OGFOD1 1 μM (Figure 3B)

Molecule	OGFOD1 inhibition in fragment-based screening, in words
CC(=O)c1c(O)n(C)c(=O)n(C)c1=O [compound 20]	improved potency
CC(=O)C1CCCCC1=O (stereo not drawn) [compound 11, 2‐acetylcyclohexanone]	poor inhibitors
CC(=O)c1c(O)cccc1O [compound 16, 2′,6′‐dihydroxyacetophenone]	relatively poor OGFOD1 inhibitor
CC(=O)c1c(O)[nH]c(=S)[nH]c1=O [compound 19]	did not substantially increase the potency
CCOC(=O)CC(=O)OCC [compound 10, diethyl malonate]	poor inhibitors
CC(=O)c1c(O)[nH]c(=O)[nH]c1=O [compound 18]	improved potency

Same assay, conditions: OGFOD1 1 µM; inhibitors at 100, 20, 5, 1 µM (Figure S9) or 5 and 1 µM (Figure S10)

Molecule	relative potency of OGFOD1 inhibition in barbiturate SAR, in words
CCn1c(O)c(C(=O)CCC2CCCC2)c(=O)n(CC)c1=O [compound 30]	less potent than 29
Cn1c(O)c(C(=O)CCCCc2ccccc2)c(=O)n(C)c1=O [compound 28]	did not provide a substantial increase in potency
O=C(CCC1CCCC1)c1c(O)n(C2CCCCC2)c(=O)n(C2CCCCC2)c1=O [compound 31]	less potent than 29
Cn1c(O)c(C(=O)CCCc2ccccc2)c(=O)n(C)c1=O [compound 27]	did not provide a substantial increase in potency
Cn1c(O)c(C(=O)NCc2ccccc2)c(=O)n(C)c1=O [compound 46]	had little effect

Same assay, conditions: OGFOD1 and PHD2 1 µM each; 23 at 100 µM (Figure 4; Figure S6)

Molecule	selectivity for OGFOD1 over PHD2, in words
CCOC(=O)CNC(=O)c1c(O)[nH]c(=O)[nH]c1=O [compound 22]	did not manifest clear selectivity for OGFOD1 over PHD2
CCOC(=O)CNC(=O)c1c(O)n(C)c(=O)n(C)c1=O [compound 23]	did not manifest clear selectivity for OGFOD1 over PHD2

Same assay, conditions: inhibitor 100 µM, OGFOD1 1 µM (Figures S1, S2)

Molecule	inhibition of OGFOD1 hydroxylation activity, in words
O=C(O)CNC(=O)c1c(O)c2ccccc2n(Cc2ccccc2)c1=O [compound 9, reference compound]	inhibited OGFOD1
O=C(O)CNC(=O)c1nc(Cl)c2ccccc2c1O [compound 7, reference compound]	inhibited OGFOD1
CCC(O)=C1C(=O)CC(C(=O)O)CC1=O (stereo not drawn) [compound 4, prohexadione‐calcium, reference compound]	inhibition of OGFOD1
O=C1CCCC(=O)C1C(=O)c1ccc(C(F)(F)F)cc1[N+](=O)[O-] [compound 1, nitisinone, reference compound]	is an OGFOD1 inhibitor
trinexapac‐ethyl [compound 5, reference compound]	inhibition of OGFOD1
Cc1nc(C(=O)NCC(=O)O)c(O)c2ccc(Oc3ccccc3)cc12 [compound 8, reference compound]	inhibited OGFOD1

Test system: not given
Assay: not given
Details: not given

Molecule	melting point
Cn1c(O)c(C(=O)[C@H]2C[C@H]2c2ccccc2)c(=O)n(C)c1=O	111 °C
Cc1cccc(CCC(=O)c2c(O)n(C)c(=O)n(C)c2=O)c1	131 °C
CC(CC(=O)c1c(O)n(C)c(=O)n(C)c1=O)c1ccccc1 (stereo not drawn)	100 °C
Cc1ccc(CCC(=O)c2c(O)n(C)c(=O)n(C)c2=O)cc1	140 °C
Cn1c(O)c(C(=O)C2Cc3ccccc3C2)c(=O)n(C)c1=O	120 °C
Cn1c(O)c(C(=O)CCC2CCCCC2)c(=O)n(C)c1=O	58 °C

Biological target: T2, PHD2181-426 (Homo sapiens, UniProt Q9GZT9)
T2 construct: 181-426 (1 µM) was
Assay: PHD2 inhibition assay: hydroxylation of HIF-1a CODD peptide by MALDI-TOF MS
Type: biochemical
Details: inhibitor 100 µM, PHD2181-426 1 µM (Figures S2, S8)
Method: as §1, §2
OGFOD1 was pre-incubated with inhibitor for 5 min before initiation of the reaction via the addition of the other reagents. Reactions were quenched with formic acid (1 % v/v) after 15 min. Samples were prepared for MALDI using α-cyano-4-hydrocinnamic acid (CHCA; prepared in 50 % acetonitrile) as a matrix. Dose-responses were assessed in 8-point triplicates, normalized to a no enzyme negative control and a no inhibitor positive control. Non-linear regression analysis was performed using Prism (GraphPad).
PHD2181-426 inhibition assays were performed by determining the extent of hydroxylation of a HIF-1a CODD peptide substrate (HIF-1a residues 556-574), using MALDI-TOF MS as described with OGFOD1.[8] The optimized hydroxylation assay involved incubation of PHD2181-426 (1 µM) with inhibitor (1 % v/v in DMSO) in the presence of (NH4)2Fe(SO4)2 (10 µM), the disodium salt of 2-oxoglutarate (60 µM), sodium ascorbate (100 µM), and HIF-1aCODD 556-574 (50 µM) in HEPES (50 mM, pH 7.5) at 37 °C for 15 min. The FIH assay employed MALDI-TOF MS detection of hydroxylation. Reactions consisted of FIH […]
(50 nM), ankyrin peptide (50 µM; […]), the disodium salt of 2- […]
oxoglutarate (100 µM), sodium ascorbate (100 µM), and (NH4)2Fe(SO4)2 (10 µM), and […]

T2 sequence (Q9GZT9 181-426 limits assumed): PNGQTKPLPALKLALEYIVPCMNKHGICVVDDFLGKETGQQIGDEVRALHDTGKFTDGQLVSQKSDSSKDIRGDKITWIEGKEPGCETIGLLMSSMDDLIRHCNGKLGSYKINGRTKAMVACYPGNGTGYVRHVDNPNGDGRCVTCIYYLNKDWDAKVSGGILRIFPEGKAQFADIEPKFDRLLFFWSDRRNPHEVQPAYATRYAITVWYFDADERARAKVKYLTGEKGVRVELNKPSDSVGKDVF

Molecule	inhibition of PHD2 hydroxylation activity, in words
Cn1c(O)c(C(=O)Cc2ccccc2)c(=O)n(C)c1=O [compound 25]	Lack of inhibition
Cn1c(O)c(C(=O)c2ccccc2)c(=O)n(C)c1=O [compound 24]	Lack of inhibition

Test system: PHD enzymes in HeLa cells
Assay: HIFα Western blot in HeLa cells (activity of PHD enzymes in cells)
Type: cell-based, human
Details: HeLa cells treated 5 h, anti-HIF-1α Western blot
Method: supplemented with 80 µM Zn(II), 70 µM of inhibitor, all in 50 mM Tris-d11, pH 7.5, 10 % D2O, […]
Cell Culture and Immunoblotting
HeLa cells were cultured in DMEM media supplemented with 10 % fetal bovine serum, 4 mM L-glutamine, 100 U/mL penicillin, and 100 µg/mL streptomycin. Cells were treated with the indicated compounds, prepared in 1% DMSO, for 5 h. Following a PBS buffer rinse, cells were lysed in urea/SDS buffer supplemented with 1 mM dithiothreitol. Cell extracts were analyzed by SDS-PAGE, electroblotted onto PVDF membranes (Millipore) and probed with anti-HIF-1α antibody (clone 54, BD Transduction Laboratories) at 1:1000 dilution for 1 h at room temperature. The HRP-conjugated secondary antibody was then applied at room temperature for 1 h. Target proteins were detected with SuperSignal Chemiluminescent […]
ADMET in vitro Predictors
S9 liver microsome stability assays and MDCK-MDR1 efflux assays were carried out for CCT3 and CCT4 by Cyprotex (UK). Additional details are provided later in the Supporting

Molecule	HIFα stabilization in HeLa cells, in words
CC(C)(C)OC(=O)c1ccc(-n2[nH]cc(-n3ccnn3)c2=O)nc1 [IOX4, reference compound]	inhibits the hydroxylation of HIFα, preventing proteasomal degradation
